Source: patent US20250282736A1, “SMALL MOLECULE MODULATORS OF HUMAN PREGNANE X RECEPTOR” (ST. JUDE CHILDREN'S RESEARCH HOSPITAL, priority 2022, published 2025)
Like-named read-outs stand apart in the source and are kept apart here.

What was measured:
[1] = molecular target: T1, hPXR (Homo sapiens (Human), UniProt O75469); test: cell-based hPXR agonistic assay; conditions: for Agonist (% activation at 10 μM): rifampicin at 10 μM as 100% activation, DMSO (0.3%) as 0%
[2] = molecular target: T1, hPXR; test: cell-based hPXR inverse agonistic assay; conditions: for inhibition at 10 µM: read-out: Inverse agonist (% inhibition at 10 μM)
[3] = molecular target: T1, hPXR; test: hPXR binding assay; conditions: for inhibition at 10 µM: read-out: Binding (% inhibition at 10 μM)
[4] = molecular target: T1, hPXR; test: cell-based hPXR antagonistic assay; conditions: for inhibition at 10 µM: read-out: Antagonist (% inhibition at 10 μM)
[5] = read-out: Binding (IC50/μM), hPXR binding assay
[6] = read-out: Agonist (EC50/μM), cell-based hPXR agonistic assay

T1 sequence (O75469 whole entry): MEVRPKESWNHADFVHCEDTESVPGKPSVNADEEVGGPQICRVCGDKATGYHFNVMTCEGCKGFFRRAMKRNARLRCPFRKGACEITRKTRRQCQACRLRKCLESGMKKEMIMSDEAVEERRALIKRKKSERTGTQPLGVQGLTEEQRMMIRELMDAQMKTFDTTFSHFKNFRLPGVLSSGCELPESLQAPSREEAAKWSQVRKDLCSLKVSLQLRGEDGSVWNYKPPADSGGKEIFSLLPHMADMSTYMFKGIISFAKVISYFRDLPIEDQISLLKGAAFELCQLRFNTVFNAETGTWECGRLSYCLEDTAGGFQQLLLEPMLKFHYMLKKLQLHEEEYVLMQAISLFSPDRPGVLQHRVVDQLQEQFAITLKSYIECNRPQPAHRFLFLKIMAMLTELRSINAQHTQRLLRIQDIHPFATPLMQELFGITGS

Row | EC50 [1] [µM] | IC50 [2] [nM] | inhibition at 10 µM [2] [%] | IC50 [3] [µM] | IC50 [4] [nM] | inhibition at 10 µM [3] [%] | IC50 [3, 5] [µM] | inhibition at 10 µM [4] [%] | Agonist (% activation at 10 μM) [1] | EC50 [1, 6] [µM] | SMILES
1 | > 30 | 16700 ± 3340 | 45 | > 30 | > 30000 | – | – | – | – | – | COc1ccc(OC)c(-n2nnc(C(=O)Nc3cc(C(C)(C)C)ccc3OCCOCCOCCOCCOCCOCCOc3ccc(C(C)(C)C)cc3NC(=O)c3nnn(-c4cc(OC)ccc4OC)c3C)c2C)c1 [B23, N,N′-((3,6,9,12,15-pentaoxaheptadecane-1,17-diylbis(oxy))bis(3-(tert-butyl)-6,1-phenylene))bis(1-(2,5-dimethoxyphenyl)-5-methyl-1H-1,2,3-triazole-4-carboxamide)]
2 | > 30 | 74 ± 13 | 101 | – | 200 | 74 | 0.1 | 104 | – | – | COc1ccc(C)cc1-n1nnc(C(=O)Nc2cc(C(C)(C)C)cc(C(C)(C)C)c2)c1C [G4]
3 | > 30 | > 30000 | – | > 30 | > 30000 | – | – | – | – | – | CCCCOc1ccc(C(C)(C)C)cc1NC(=O)c1nnn(-c2ccncc2)c1C [H13]
4 | > 30 | 180 | 80 | – | 480 ± 140 | 40 | 0.14 | 103 | – | – | COc1cc(NC(=O)c2nnn(-c3cc(Cl)ccc3OC)c2C)cc(C(C)(C)C)c1 [F5]
5 | > 30 | 310 | 105 | – | 1090 ± 300 | 25 | 0.31 ± 0.17 | 107 | – | – | COC(=O)CCCOc1cc(NC(=O)c2nnn(-c3cc(OC)ccc3OC)c2C)cc(C(C)(C)C)c1 [D29]
6 | – | > 30000 | – | – | > 30000 | 86 | 4.12 ± 1.4 | – | (33 ± 7)% | 0.28 | COc1ccc(OC)c(-n2nnc(C(=O)Nc3ccc(N)c(C(C)(C)C)c3)c2C)c1 [C2, N-(4-amino-3-(tert-butyl)phenyl)-1-(2,5-dimethoxyphenyl)-5-methyl-1H-1,2,3-triazole-4-carboxamide]
7 | > 30 | > 30000 | – | – | > 30000 | 49 | 16.1 ± 0.54 | – | – | – | CCc1cccc(NC(=O)c2nnn(-c3cc(OC)ccc3OC)c2C)c1 [A8]
8 | > 30 | 1140 ± 580 | 91 | – | 2140 ± 360 | 70 | 1 ± 0.08 | 92 | – | – | COCCOCCOCCOCCOc1cc(NC(=O)c2nnn(-c3cc(OC)ccc3OC)c2C)cc(C(C)(C)C)c1 [D27]
9 | – | > 30000 | – | – | > 30000 | 18 | 0.053 ± 0.036 | – | (48 ± 1)% | 1.48 ± 0.17 | CCCCOc1ccc(C(C)(C)C)cc1NC(=O)c1nnn(-c2cc(OC)ccc2F)c1C [H8]
10 | 0.79 ± 0.26 | > 30000 | – | > 30 | > 30000 | – | – | – | (29 ± 5)% | – | COc1ccc(-n2nnc(C(=O)Nc3ccc(C)cc3)c2C)cc1 [E7]
11 | > 30 | 12700 ± 4690 | 48 | – | 22100 ± 4860 | 70 | 1.26 | 25 | – | – | COc1ccc(OC)c(-n2nnc(C(=O)Nc3cc(NC(=O)CCC(=O)O)cc(C(C)(C)C)c3)c2C)c1 [D6, 4-((3-(tert-butyl)-5-(1-(2,5-dimethoxyphenyl)-5-methyl-1H-1,2,3-triazole-4-carboxamido)phenyl)amino)-4-oxobutanoic acid]
12 | > 30 | 65 ± 39 | 97 | – | 320 ± 20 | 90 | 0.23 ± 0.1 | 99 | – | – | CCC[C@H](CC)Oc1ccc(C(C)(C)C)cc1NC(=O)c1nnn(-c2cc(Cl)c(Cl)cc2OC)c1C [M12, (S)—N-(5-(Tert-Butyl)-2-(Hexan-3-yloxy)Phenyl)-1-(4,5-Dichloro-2-Methoxyphenyl)-5-Methyl-1H-1,2,3-Triazole-4-Carboxamide]
